{
  "source": "patent US5478825A",
  "about": "“5-(substituted amino)-1,2,4-triazolo (1,5-A) pyrimidine derivatives” (Egis Gyogyszergyar, priority 1991, dated 1995)",
  "key": {"gastric acid secretion": {"tested_on": "gastric acid secretion", "assay": "Gastric acid secretion test", "assay_type": "in vivo, rat", "method": "8. […] Rats of both sexes (Wistar breed, weighing 180-240 g) were fastened for 48 hours. On the day of the test the pylorus of the animals was bound under ether narcosis. The test compounds were administered orally 3 hours before the operation. 4 hours after the operation the animals were anaesthetized and the stomach was removed, the content thereof was centrifuged and the amount of the free acid was determined by titration, in the presence of Topfer reagent. The inhibition in relation to the control is calculated in percentage."}, "hexobarbital narcosis": {"tested_on": "hexobarbital narcosis", "assay": "Narcosis potentiating activity (hexobarbital)", "assay_type": "in vivo, mice", "conditions": "for Narcosis potentiating effect: 100 mg/kg, orally, frequency of positive reaction, hexobarbital 40 mg/kg i.v.", "method": "6. Narcosis potentiating activity\nGroups consisting of 6 mice each were orally treated with the compound to be examined. After one hour, hexobarbital [5-(1-cyclohexenyl)-1,5-dimethylbarbituric acid] was injected intravenously at a dosage of 40 mg/kg. The control group was treated only with hexobarbital to provoke sleep. The duration of sleep was recorded. If the duration of sleep of an animal exceeded that of the mean value of the control group by a factor of 2.5, it was considered as a positive reaction. The frequency of the positive reaction is expressed as the percentage of the value obtained for the control animals."}, "motility of mice": {"tested_on": "motility of mice", "assay": "Motility inhibiting activity", "assay_type": "in vivo", "method": "5. Motility inhibiting activity\nThe tests were performed according to the method of Borsy et al. [Arch. Int. Pharmacodyn. 124, 1-2 (1960)]. Groups consisting of 3 mice each were treated orally with different doses of the compounds to be tested. Then the test animals were placed in a Dews equipment. In this equipment the number of interruptions of infrared beam within 30 minutes was counted. The inhibition is expressed as the percentage of the value obtained for the control animals."}, "pentetrazole spasm": {"tested_on": "pentetrazole spasm", "assay": "Spasmolytic activity on mice (pentetrazole spasm)", "assay_type": "in vivo", "conditions": "orally; for Inhibition of pentetrazole spasm: 100 mg/kg, pentetrazole 125 mg/kg i.p.", "method": "7. Spasmolytic activity on mice\nThe tests were carried out according to the modified method of Benzinger and Hane [Arch. Int. Pharmacodyn. 167, 245-249 (1959)]. Mice of both sexes (NMRI breed, body weight 20-25 g) were treated orally with the compounds to be tested. One hour after the administration pentetrazole (6,7,8,9-tetrahydro-5H-tetrazoloazepine) was given intraperitoneally in a dosis of 125 mg/kg. The tonic-extensoric spasms on the hind limbs were registered. As reference compound 3,5,5-trimethyl-oxazolidine-2,4-dione (trimetadione) was used."}},
  "data": [
    {"smiles": "CN/C(=N/CCSCc1nc[nH]c1C)NC#N", "note": "[Cimetidine, reference compound]", "values": [
      {"measurement": "Inhibition (gastric acid secretion)", "setting": "gastric acid secretion; 200 mg/kg p.o.", "value": 91, "unit": "%"}
    ]},
    {"smiles": "CCN(CC)c1c2c(nc3nc(SC)nn13)CCC2", "note": "[Example 1, 5-(Diethylamino)-2-(methylthio)-6,7-dihydro-8H-cyclopenta[d]-1,2,4-triazolo[1,5-a]pyrimidine]", "values": [
      {"measurement": "Inhibition (gastric acid secretion)", "setting": "gastric acid secretion; 200 mg/kg p.o.", "value": 75, "unit": "%"}
    ]},
    {"smiles": "OCCN(CCO)c1c2c(nc3nc(N4CCOCC4)nn13)CCC2", "note": "[Example 11, 5-[N-bis(2-Hydroxyethyl)]amino-2-morpholino-6,7-dihydro-8H-cyclopenta[d]-1,2,4-triazolo[1,5-a]pyrimidine]", "values": [
      {"measurement": "Narcosis potentiating effect", "setting": "hexobarbital narcosis", "value": 67, "unit": "%"}
    ]},
    {"smiles": "C1Cc2nc3nc(N4CCOCC4)nn3c(N3CCOCC3)c2C1", "note": "[Example 15, 2,5-Dimorpholino-6,7-dihydro-8H-cyclopenta[d]-1,2,4-triazolo[1,5-a]pyrimidine]", "values": [
      {"measurement": "Change in motility vs control", "setting": "motility of mice; 100 mg/kg, orally", "value": -65, "unit": "%"},
      {"measurement": "Inhibition of pentetrazole spasm", "setting": "pentetrazole spasm", "value": -50, "unit": "%"}
    ]},
    {"smiles": "CSc1nc2nc3c(c(NCCN4CCOCC4)n2n1)CCCC3", "note": "[Example 18, 2-(Methylthio)-5-[N-(2-morpholinoethyl)]amino-6,7,8,9-tetrahydro-1,2,4-triazolo[5,1-b]quinazoline]", "values": [
      {"measurement": "Inhibition of pentetrazole spasm", "setting": "pentetrazole spasm", "value": -56, "unit": "%"}
    ]},
    {"smiles": "Cc1cc(N(CCO)Cc2ccccc2)n2nc(N3CCOCC3)nc2n1", "note": "[Example 24, 5-[N-Benzyl-N-(2-hydroxyethyl)]amino-7-methyl-2-morpholino-1,2,4-triazolo[1,5-a]pyrimidine]", "values": [
      {"measurement": "Narcosis potentiating effect", "setting": "hexobarbital narcosis", "value": 67, "unit": "%"}
    ]},
    {"smiles": "CCCC(C)(COC(N)=O)COC(N)=O", "note": "[Meprobamate, reference compound]", "values": [
      {"measurement": "ED50", "setting": "motility of mice; Mus musculus, po, read-out: ED50 (motility inhibition)", "value": 232, "unit": "mg/kg"},
      {"measurement": "motility inhibition (in words)", "setting": "motility of mice; dose of 100 mg/kg", "value": "inactive"},
      {"measurement": "ED50", "setting": "hexobarbital narcosis; Mus musculus, po, read-out: ED50 (narcosis potentiating effect)", "value": 260, "unit": "mg/kg"},
      {"measurement": "narcosis potentiating effect (in words)", "setting": "hexobarbital narcosis; dose of 100 mg/kg", "value": "inactive"}
    ]},
    {"smiles": "CN1C(=O)OC(C)(C)C1=O", "note": "[Trimetadione, 3,5,5-trimethyl-oxazolidine-2,4-dione, reference compound]", "values": [
      {"measurement": "ED50", "setting": "pentetrazole spasm; Mus musculus, po, read-out: ED50 (inhibition of pentetrazole spasm)", "value": 400, "unit": "mg/kg"}
    ]},
    {"smiles": "COc1cc(C(=S)N2CCOCC2)cc(OC)c1OC", "note": "[Trithiozine, reference compound]", "values": [
      {"measurement": "Inhibition (gastric acid secretion)", "setting": "gastric acid secretion; 400 mg/kg p.o.", "value": 63, "unit": "%"}
    ]}
  ]
}
